Measured values: patent US20230172204A1 (BASF SE, priority 2020, published 2023)

How the values were obtained:
[1] = test system: Phakopsora pachyrhizi (F129L); test: Protective control of soybean rust on soybeans (PHAKPA P6); type: in vivo; conditions: for PHAKPA (F129L) Disease level (%) P6 at 16 ppm: P6 protective, % diseased leaf area; for % PHAKPA (F129L) Disease level P6 at 4 ppm: protective P6, 4 ppm; for % PHAKPA (F129L) Disease level P6 at 4 ppm / % PHAKPA (F129L) Disease level P6 at 16 ppm: soybean rust F129L; for % PHAKPA (F129L) Disease level P6 at 16 ppm: protective P6, 16 ppm
[2] = test system: Phakopsora pachyrhizi (F129L); test: Protective control of soybean rust on soybeans (PHAKPA P2); type: in vivo; conditions: for % PHAKPA (F129L) Disease level P2 at 4 ppm: protective P2, 4 ppm; for % PHAKPA (F129L) Disease level P2 at 4 ppm / % PHAKPA (F129L) Disease level P2 at 16 ppm: soybean rust F129L; for % PHAKPA (F129L) Disease level P2 at 16 ppm: protective P2, 16 ppm
[3] = P2 protective, % diseased leaf area

CNC(=O)/C(=N/OC)c1ccccc1CO/N=C(\C)c1ccccc1Br [reference compound]
PHAKPA (F129L) Disease level (%) P6 at 16 ppm [1]: 28% | PHAKPA (F129L) Disease level (%) P2 at 16 ppm [2, 3]: 23%

C#Cc1cccc(/C(C)=N/OCc2c(C)cccc2/C(=N\OC)C(=O)NC)c1F [compound 401]
% PHAKPA (F129L) Disease level P6 at 4 ppm [1]: 32% | % PHAKPA (F129L) Disease level P6 at 16 ppm [1]: 4% | % PHAKPA (F129L) Disease level P2 at 4 ppm [2]: 17% | % PHAKPA (F129L) Disease level P2 at 16 ppm [2]: 5%

C#Cc1cc(F)c(F)c(/C(C)=N/OCc2c(C)cccc2/C(=N\OC)C(=O)NC)c1 [compound 243]
% PHAKPA (F129L) Disease level P6 at 4 ppm [1]: 37% | % PHAKPA (F129L) Disease level P6 at 16 ppm [1]: 1% | % PHAKPA (F129L) Disease level P2 at 4 ppm [2]: 4% | % PHAKPA (F129L) Disease level P2 at 16 ppm [2]: 0%

CO/N=C(/C(=O)OC)c1cccc(C)c1CO/N=C(\CC1CC1)c1cccc(C(F)(F)F)c1 [compound 215]
% PHAKPA (F129L) Disease level P6 at 4 ppm [1]: 87% | % PHAKPA (F129L) Disease level P6 at 16 ppm [1]: 33% | % PHAKPA (F129L) Disease level P2 at 4 ppm [2]: 87% | % PHAKPA (F129L) Disease level P2 at 16 ppm [2]: 37%

CO/N=C(/C(=O)OC)c1ccccc1CO/N=C(\C)c1ccc(C(F)(F)F)cc1 [reference compound]
PHAKPA (F129L) Disease level (%) P6 at 16 ppm [1]: 13% | PHAKPA (F129L) Disease level (%) P2 at 16 ppm [2, 3]: 43%

CNC(=O)/C(=N/OC)c1cccc(C)c1CO/N=C(\CC(F)(F)F)c1cc(Cl)cc(Cl)c1 [compound 255]
% PHAKPA (F129L) Disease level P6 at 4 ppm [1]: 100% | % PHAKPA (F129L) Disease level P6 at 16 ppm [1]: 87% | % PHAKPA (F129L) Disease level P2 at 4 ppm [2]: 97% | % PHAKPA (F129L) Disease level P2 at 16 ppm [2]: 83%

CO/N=C(\C)COc1cccc(/C(C)=N/OCc2c(C)cccc2/C(=N\OC)C(=O)OC)c1 [compound 227]
% PHAKPA (F129L) Disease level P6 at 4 ppm [1]: 100% | % PHAKPA (F129L) Disease level P6 at 16 ppm [1]: 57% | % PHAKPA (F129L) Disease level P2 at 4 ppm [2]: 100% | % PHAKPA (F129L) Disease level P2 at 16 ppm [2]: 47%

CNC(=O)/C(=N/OC)c1cccc(C)c1CO/N=C(\SC)c1cccc(Cl)c1 [drawing 979, reference compound]
PHAKPA (F129L) Disease level (%) P6 at 16 ppm [1]: 9% | PHAKPA (F129L) Disease level (%) P2 at 4 ppm ([2]; P2 protective, 4 ppm, % diseased leaf area): 20%

CNC(=O)/C(=N/OC)c1cccc(C)c1CO/N=C(\C)c1ccccc1OC(F)F [compound 252]
% PHAKPA (F129L) Disease level P6 at 4 ppm [1]: 87% | % PHAKPA (F129L) Disease level P6 at 16 ppm [1]: 32% | % PHAKPA (F129L) Disease level P2 at 4 ppm [2]: 50% | % PHAKPA (F129L) Disease level P2 at 16 ppm [2]: 3%

CC/C(=N\OCc1c(C)cccc1/C(=N\OC)C(=O)OC)c1cccc(C(F)(F)F)c1 [compound 204]
% PHAKPA (F129L) Disease level P6 at 4 ppm [1]: 80% | % PHAKPA (F129L) Disease level P6 at 16 ppm [1]: 5% | % PHAKPA (F129L) Disease level P2 at 4 ppm [2]: 50% | % PHAKPA (F129L) Disease level P2 at 16 ppm [2]: 4%

C=C(C)c1cccc(/C(=N\OC)C(=O)NC)c1CO/N=C(\C)c1ccccc1 [compound 399]
% PHAKPA (F129L) Disease level P6 at 4 ppm [1]: 90% | % PHAKPA (F129L) Disease level P6 at 16 ppm [1]: 15% | % PHAKPA (F129L) Disease level P2 at 4 ppm [2]: 67% | % PHAKPA (F129L) Disease level P2 at 16 ppm [2]: 8%

CNC(=O)/C(=N/OC)c1cccc(C)c1CO/N=C(\C)c1cc(C(F)(F)F)ccc1F [compound 199]
% PHAKPA (F129L) Disease level P6 at 4 ppm [1]: 0% | % PHAKPA (F129L) Disease level P6 at 16 ppm [1]: 0% | % PHAKPA (F129L) Disease level P2 at 4 ppm [2]: 0% | % PHAKPA (F129L) Disease level P2 at 16 ppm [2]: 0%

CO/N=C(/C(=O)OC)c1cccc(C)c1CO/N=C(\C)c1cc(C2CC2)cc(C(F)(F)F)c1 [compound 145]
% PHAKPA (F129L) Disease level P6 at 4 ppm [1]: 37% | % PHAKPA (F129L) Disease level P6 at 16 ppm [1]: 16% | % PHAKPA (F129L) Disease level P2 at 4 ppm [2]: 28% | % PHAKPA (F129L) Disease level P2 at 16 ppm [2]: 8%

C#Cc1ccccc1/C(C)=N/OCc1c(C)cccc1/C(=N\OC)C(=O)OC [compound 122]
% PHAKPA (F129L) Disease level P6 at 4 ppm [1]: 93% | % PHAKPA (F129L) Disease level P6 at 16 ppm [1]: 90% | % PHAKPA (F129L) Disease level P2 at 4 ppm [2]: 100% | % PHAKPA (F129L) Disease level P2 at 16 ppm [2]: 73%

CNC(=O)/C(=N/OC)c1cccc(C)c1CO/N=C(\C)c1cc(C(F)(F)F)ccc1Cl [compound 190]
% PHAKPA (F129L) Disease level P6 at 4 ppm [1]: 45% | % PHAKPA (F129L) Disease level P6 at 16 ppm [1]: 3% | % PHAKPA (F129L) Disease level P2 at 4 ppm [2]: 20% | % PHAKPA (F129L) Disease level P2 at 16 ppm [2]: 0%

CO/N=C(/C(=O)OC)c1cccc(C)c1CO/N=C(\C)c1cc(F)ccc1F [compound 118]
% PHAKPA (F129L) Disease level P6 at 4 ppm [1]: 32% | % PHAKPA (F129L) Disease level P6 at 16 ppm [1]: 0% | % PHAKPA (F129L) Disease level P2 at 4 ppm [2]: 10% | % PHAKPA (F129L) Disease level P2 at 16 ppm [2]: 0%

CNC(=O)/C(=N/OC)c1cccc(C)c1CO/N=C(\C)c1ccc(C(C)=O)cc1 [compound 179]
% PHAKPA (F129L) Disease level P6 at 4 ppm [1]: 90% | % PHAKPA (F129L) Disease level P6 at 16 ppm [1]: 28% | % PHAKPA (F129L) Disease level P2 at 4 ppm [2]: 100% | % PHAKPA (F129L) Disease level P2 at 16 ppm [2]: 47%

CNC(=O)/C(=N/OC)c1cccc(C)c1CO/N=C(\C)c1ccccc1C(F)F [compound 298]
% PHAKPA (F129L) Disease level P6 at 4 ppm [1]: 97% | % PHAKPA (F129L) Disease level P6 at 16 ppm [1]: 37% | % PHAKPA (F129L) Disease level P2 at 4 ppm [2]: 63% | % PHAKPA (F129L) Disease level P2 at 16 ppm [2]: 7%

CNC(=O)/C(=N/OC)c1cccc(C)c1CO/N=C(\C)c1ccc(Oc2ccc(Cl)cc2)cc1C(F)(F)F [compound 336]
% PHAKPA (F129L) Disease level P6 at 4 ppm [1]: 50% | % PHAKPA (F129L) Disease level P6 at 16 ppm [1]: 17% | % PHAKPA (F129L) Disease level P2 at 4 ppm [2]: 63% | % PHAKPA (F129L) Disease level P2 at 16 ppm [2]: 20%

CO/N=C(/C(=O)OC)c1cccc(C)c1CO/N=C(\C)c1c(F)ccc(C(F)(F)F)c1F [compound 156]
% PHAKPA (F129L) Disease level P6 at 4 ppm [1]: 47% | % PHAKPA (F129L) Disease level P6 at 16 ppm [1]: 3% | % PHAKPA (F129L) Disease level P2 at 4 ppm [2]: 27% | % PHAKPA (F129L) Disease level P2 at 16 ppm [2]: 0%

CCc1cc(/C(C)=N/OCc2c(C)cccc2/C(=N\OC)C(=O)NC)cc(C(F)(F)F)c1 [compound 151]
% PHAKPA (F129L) Disease level P6 at 4 ppm [1]: 53% | % PHAKPA (F129L) Disease level P6 at 16 ppm [1]: 6% | % PHAKPA (F129L) Disease level P2 at 4 ppm [2]: 37% | % PHAKPA (F129L) Disease level P2 at 16 ppm [2]: 3%

CO/N=C(/C(=O)OC)c1cccc(C)c1CO/N=C(\C)c1cccc(C2CC2(Cl)Cl)c1 (stereo not drawn) [compound 74]
% PHAKPA (F129L) Disease level P6 at 4 ppm [1]: 16% | % PHAKPA (F129L) Disease level P6 at 16 ppm [1]: 3% | % PHAKPA (F129L) Disease level P2 at 4 ppm [2]: 27% | % PHAKPA (F129L) Disease level P2 at 16 ppm [2]: 6%

CNC(=O)/C(=N/OC)c1cccc(C)c1CO/N=C(\C)c1c(F)ccc(F)c1C(F)(F)F [compound 359]
% PHAKPA (F129L) Disease level P6 at 4 ppm [1]: 100% | % PHAKPA (F129L) Disease level P6 at 16 ppm [1]: 43% | % PHAKPA (F129L) Disease level P2 at 4 ppm [2]: 100% | % PHAKPA (F129L) Disease level P2 at 16 ppm [2]: 37%

CNC(=O)/C(=N/OC)c1cccc(C)c1CO/N=C(/c1cccc(C(F)(F)F)c1)C(C)C [compound 207]
% PHAKPA (F129L) Disease level P6 at 4 ppm [1]: 83% | % PHAKPA (F129L) Disease level P6 at 16 ppm [1]: 5% | % PHAKPA (F129L) Disease level P2 at 4 ppm [2]: 40% | % PHAKPA (F129L) Disease level P2 at 16 ppm [2]: 11%

CNC(=O)/C(=N/OC)c1cccc(C)c1CO/N=C(\C)c1ccc(OC)cc1OC(F)(F)F [compound 337]
% PHAKPA (F129L) Disease level P6 at 4 ppm [1]: 13% | % PHAKPA (F129L) Disease level P6 at 16 ppm [1]: 1% | % PHAKPA (F129L) Disease level P2 at 4 ppm [2]: 9% | % PHAKPA (F129L) Disease level P2 at 16 ppm [2]: 0%

CO/N=C(/C(=O)OC)c1cccc(C)c1CO/N=C(\C)c1cccc(-c2cc(C)on2)c1 [compound 43]
% PHAKPA (F129L) Disease level P6 at 4 ppm [1]: 97% | % PHAKPA (F129L) Disease level P6 at 16 ppm [1]: 87% | % PHAKPA (F129L) Disease level P2 at 4 ppm [2]: 100% | % PHAKPA (F129L) Disease level P2 at 16 ppm [2]: 100%

CNC(=O)/C(=N/OC)c1cccc(C)c1CO/N=C(\C)c1cc(Cl)cc(C(F)(F)F)c1 [compound 228]
% PHAKPA (F129L) Disease level P6 at 4 ppm [1]: 22% | % PHAKPA (F129L) Disease level P6 at 16 ppm [1]: 2% | % PHAKPA (F129L) Disease level P2 at 4 ppm [2]: 5% | % PHAKPA (F129L) Disease level P2 at 16 ppm [2]: 0%
